# Results published in US12358912B2 (ASCENTAGE PHARMA (SUZHOU) CO., LTD., priority 2020, dated 2025).
# Tests used:
# Assay type in all cases: physicochemical
# [1] = Suspension competitive test between Crystalline Form III and Crystalline Form XVIII (EtOAc, MTBE, n-butyl alcohol; solid tested by XRPD); details: for Crystalline Form: solid by XRPD after suspension stirring 7 days; for interconversion rate of crystalline form III and crystalline form XVIII: suspension stirring 7 days
# [2] = Suspension competitive agitation test between anhydrous crystalline forms I, III, XV, XVII and XVIII (IPA, MTBE; solid tested by XRPD); details: solid by XRPD after suspension stirring 3 days
# [3] = Stability test (1): physical and chemical stability by XRPD and HPLC at 80° C., 40° C./75% RH and 25° C./60% RH; details: for chemical stability: degradation (HPLC purity) / physical stability: crystalline form (XRPD): 80° C. (sealed) 24 hours, 40° C./75% RH and 25° C./60% RH (open) 1 week; for purity (area %): HPLC
# Protocol: (sealed) for 24 hours, at 40° C./75% RH and 25° C./60% RH (open) for 1 week, respectively. The physical and chemical stability of the samples were tested by XRPD and HPLC.
# [4] = Evaluation of hygroscopicity by Dynamic Moisture Sorption Analyzer (DVS), with XRPD before and after DVS; details: for hygroscopicity (in words) / moisture adsorption: 80% RH/25° C.; for moisture adsorption: humidity cycle 0% RH-95% RH-0% RH; for crystalline form after the DVS test (XRPD): XRPD of the sample after the DVS test
# [5] = Stability test (2): salt crystalline forms at high temperature, high humidity and light, detection by HPLC and XRPD; details: for total impurities (%): HPLC
# [6] = light (RT, white light 6980 lux, UV 282 μW/cm2), 5 days
# [7] = light (RT, white light 6980 lux, UV 282 μW/cm2), 10 days
smiles,measurement,setting,value
O=C(NS(=O)(=O)c1ccc(NC[C@H]2COCCO2)c([N+](=O)[O-])c1)c1ccc(N2CCN(CC3=C(c4ccc(Cl)cc4)CC4(CCC4)CC3)CC2)cc1Oc1cnc2[nH]ccc2c1 [listing 1 of 2 here],Crystalline Form,"[1]; EtOAc, 50° C.",Crystalline Form III
same,Crystalline Form,"[1]; EtOAc, 70° C.",Crystalline Form III
same,Crystalline Form,"[1]; EtOAc, room temperature",Crystalline Form V
same,Crystalline Form,"[1]; MTBE, 50° C.",Crystalline Form III
same,Crystalline Form,"[1]; MTBE, 70° C.",Crystalline Form III
same,Crystalline Form,"[1]; n-Butyl alcohol, 50° C.",Crystalline Form III
same,Crystalline Form,"[1]; n-Butyl alcohol, 70° C.",Crystalline Form III
O=C(NS(=O)(=O)c1ccc(NC[C@H]2COCCO2)c([N+](=O)[O-])c1)c1ccc(N2CCN(CC3=C(c4ccc(Cl)cc4)CC4(CCC4)CC3)CC2)cc1Oc1cnc2[nH]ccc2c1 [listing 2 of 2 here],Crystalline Form,"[2]; IPA, 50° C.",Crystalline Form III
same,Crystalline Form,"[2]; IPA, 70° C.",Crystalline Form III
same,Crystalline Form,"[2]; IPA, room temperature",Crystalline Form III
same,Crystalline Form,"[2]; MTBE, 50° C.",Crystalline Form III
same,Crystalline Form,"[2]; MTBE, 70° C.",Crystalline Form III
same,Crystalline Form,"[2]; MTBE, room temperature",Crystalline Form III
"O=C(NS(=O)(=O)c1ccc(NCC2COCCO2)c([N+](=O)[O-])c1)c1ccc(N2CCN(CC3=C(c4ccc(Cl)cc4)CC4(CCC4)CC3)CC2)cc1Oc1cnc2[nH]ccc2c1 (single isomer, unassigned) [crystalline form III]",chemical stability: degradation (HPLC purity),[3],did not degrade
same,physical stability: crystalline form (XRPD),[3],did not change
same,purity (area %),[3]; 25° C./60% RH 1 week (open),98.66 area %
same,purity (area %),[3]; 40° C./75% RH 1 week (open),98.67 area %
same,purity (area %),[3]; 80° C. 24 hours (sealed),98.64 area %
same,purity (area %),[3]; starting point,98.65 area %
same,hygroscopicity (in words),[4]; DVS,slight hygroscopicity
same,moisture adsorption,[4]; DVS,0.9%
same,crystalline form after the DVS test (XRPD),[4],did not change
same,stability of crystalline form III and crystalline form XVIII relative to each other,[1]; room temperature,similar
same,interconversion rate of crystalline form III and crystalline form XVIII,[1]; room temperature,relatively slow
"O=C(NS(=O)(=O)c1ccc(NCC2COCCO2)c([N+](=O)[O-])c1)c1ccc(N2CCN(CC3=C(c4ccc(Cl)cc4)CC4(CCC4)CC3)CC2)cc1Oc1cnc2[nH]ccc2c1 (single isomer, unassigned) [crystalline form XVIII]",chemical stability: degradation (HPLC purity),[3],did not degrade
same,physical stability: crystalline form (XRPD),[3],did not change
same,purity (area %),[3]; 25° C./60% RH 1 week (open),99.60 area %
same,purity (area %),[3]; 40° C./75% RH 1 week (open),99.61 area %
same,purity (area %),[3]; 80° C. 24 hours (sealed),99.61 area %
same,purity (area %),[3]; starting point,99.48 area %
same,hygroscopicity (in words),[4]; DVS,almost no moisture absorption
same,moisture adsorption,[4]; DVS,0.04%
same,crystalline form after the DVS test (XRPD),[4],did not change
same,stability of crystalline form III and crystalline form XVIII relative to each other,[1]; room temperature,similar
same,interconversion rate of crystalline form III and crystalline form XVIII,[1]; room temperature,relatively slow
O=C(NS(=O)(=O)c1ccc(NC[C@H]2COCCO2)c([N+](=O)[O-])c1)c1ccc(N2CCN(CC3=C(c4ccc(Cl)cc4)CC4(CCC4)CC3)CC2)cc1Oc1cnc2[nH]ccc2c1.O=C(O)/C=C\C(=O)O [XXIV],weight increase by hygroscopy (80% RH),"[4]; DVS, 80% RH",1.246%
same,XRPD change,[4]; XRPD before and after DVS,changed
same,XPRD,"[5]; 60° C. (open), 5 days",No change
same,XPRD,"[5]; 60° C. (open), 10 days",No change
same,XPRD,"[5]; 60° C. (open), 30 days",No change
same,total impurities (%),"[5]; 60° C. (open), 5 days",0.48%
same,total impurities (%),"[5]; 60° C. (open), 10 days",0.48%
same,total impurities (%),"[5]; 60° C. (open), 30 days",0.61%
same,total impurities (%),"[5]; RT/75% RH (open), 5 days",0.50%
same,total impurities (%),"[5]; RT/75% RH (open), 10 days",0.50%
same,total impurities (%),"[5]; RT/75% RH (open), 30 days",0.50%
same,total impurities (%),[5]; [6],0.73%
same,total impurities (%),[5]; [7],0.72%
same,total impurities (%),"[5]; the initial sample, 0 day",0.50%
same,XPRD,"[5]; RT/75% RH (open), 5 days",No change
same,XPRD,"[5]; RT/75% RH (open), 10 days",No change
same,XPRD,"[5]; RT/75% RH (open), 30 days",No change
same,XPRD,[5]; [6],No change
same,XPRD,[5]; [7],No change
same,XPRD,"[5]; the initial sample, 0 day",XXIV
O=C(NS(=O)(=O)c1ccc(NCC2COCCO2)c([N+](=O)[O-])c1)c1ccc(N2CCN(CC3=C(c4ccc(Cl)cc4)CC4(CCC4)CC3)CC2)cc1Oc1cnc2[nH]ccc2c1 (stereo not shown) [amorphous form XXV],chemical stability: degradation (HPLC purity),[3],did not degrade
same,physical stability: crystalline form (XRPD),[3],did not change
same,purity (area %),[3]; 25° C./60% RH 1 week (open),99.42 area %
same,purity (area %),[3]; 40° C./75% RH 1 week (open),99.45 area %
same,purity (area %),[3]; 80° C. 24 hours (sealed),99.42 area %
same,purity (area %),[3]; starting point,99.43 area %
